Tests used:
Type in all cases: cell-based
[1] = test system: MDA-MB-468; assay: Antiproliferative activity (MTS assay), MDA-MB-468; conditions: Homo sapiens, MDA-MB-468, 96 h, MDA-MB-468 cells
Description: (§1) Antiproliferative effect is expressed as IC50 values in microMolar final concentration.
(§2) Cells were grown at 37° C. in a humidified atmosphere with 5% CO2 and 95% air. Cells were seeded in 96 well tissue culture plates.
(§3) Compound treatment started after overnight incubation of cells (TO). […] Compound was added to the plate in triplicate wells, and the plates were then incubated for 96 hours. DMSO (compounds diluents) was also included and added to the plate in control wells. Cell viability was then determined by MTS assay using CellTiter 96® AQueous non-radioactive cell proliferation assay system (Promega). A plate reader (Molecular Devices, Vmax) was used to read the optical densities, and the results were used to deduce concentration-response curves. […] The results were analyzed using linear regression software (GraphPad Prism 5; GraphPad Software Inc.).
(§4) The GI50 values (growth inhibitory activity) were determined to emphasize on the correction for the cell count at time zero; thus, the % inhibition of test drug were: [1−(T−T0)/(C−T0)]×100; and these value were used to plot the concentration-response curves, and then analyzed with linear regression software (GraphPad Prism 5).

[2] = test system: Hela; assay: Antiproliferative activity (MTS assay), Hela; conditions: Homo sapiens, HeLa, 96 h, Hela cells
Description: as §1, §2, §3, §4

[3] = test system: MDA-MB-231; assay: Antiproliferative activity (MTS assay), MDA-MB-231; conditions: Homo sapiens, MDA-MB-231, 96 h, MDA-MB-231 cells
Description: as §1, §2, §3, §4

[4] = test system: K562; assay: Antiproliferative activity (MTS assay), K562; conditions: Homo sapiens, K562, 96 h, K562 cells
Description: as §1, §2, §3, §4

Row | Compound | IC50 [1] | IC50 [2] | IC50 [3] | IC50 [4]
1 | COc1cc(-c2csc(NC(=O)c3cccnc3)n2)ccc1O [Compound 35] | > 10000 nM | > 10000 nM | > 10000 nM | > 10000 nM
2 | Cc1ccc(-c2nc(NC(=O)c3ccncc3)sc2C)cc1 [Compound 43] | > 10000 nM | > 10000 nM | > 10000 nM | > 10000 nM
3 | Cc1sc(NC(=O)c2ccc(C#N)cc2)nc1-c1ccccc1 [Compound 38] | 3400 nM | > 10000 nM | 5680 nM | > 10000 nM
4 | Cc1ccc(-c2nc(NC(=O)c3ccc(C#N)cc3)sc2C)cc1 [Compound 30] | > 10000 nM | > 10000 nM | > 10000 nM | > 10000 nM
5 | COc1cc(-c2csc(NC(=O)c3ccccn3)n2)ccc1O [Compound 36] | > 10000 nM | > 10000 nM | > 10000 nM | > 10000 nM
6 | COc1c(F)cc(-c2csc(NC(=O)c3ccncc3)n2)cc1F [Compound 62] | 5450 nM | > 10000 nM | 4000 nM | 7160 nM
7 | COc1ccc(-c2csc(NC(=O)c3cccnc3)n2)c(F)c1 [Compound 21] | > 10000 nM | > 10000 nM | > 10000 nM | > 10000 nM
8 | COc1ccc(-c2csc(NC(=O)c3ccnc(Cl)c3)n2)cc1 [Compound 54] | 6950 nM | 5920 nM | 4560 nM | 6650 nM
9 | COc1cc(C(=O)Nc2nc(-c3c(C)cc(C)cc3C)cs2)cc(Cl)n1 [Compound 87] | > 10000 nM | > 10000 nM | > 10000 nM | > 10000 nM
10 | CC(=O)Nc1cc(C)c(-c2csc(NC(=O)c3ccncc3)n2)c(C)c1 [Compound 74] | 1270 nM | 1590 nM | 1460 nM | 2130 nM
11 | Cc1cc(Nc2ccc(Br)cc2)cc(C)c1-c1csc(NC(=O)c2ccncc2)n1 [Compound 122] | 1220 nM | 2130 nM | 720 nM | 360 nM
12 | Cc1ccc(-c2csc(NC(=O)c3ccccn3)n2)cc1 [Compound 29] | > 10000 nM | > 10000 nM | > 10000 nM | > 10000 nM
13 | COc1cc(-c2csc(NC(=O)c3cncs3)n2)ccc1O [Compound 50] | > 10000 nM | > 10000 nM | > 10000 nM | > 10000 nM
14 | Cc1cc(C)c(-c2csc(NC(=O)c3ccncn3)n2)c(C)c1 [Compound 5] | 4570 nM | > 10000 nM | 7370 nM | 5740 nM
15 | Cc1ccc(-c2csc(NC(=O)c3ccncc3)n2)cc1 [Compound 6] | 1140 nM | 1050 nM | 670 nM | 1480 nM
16 | O=C(Nc1nc(-c2ccc(O)cc2)cs1)c1ccccn1 [Compound 59] | > 10000 nM | > 10000 nM | > 10000 nM | > 10000 nM
17 | COc1cc(C)c(-c2csc(NC(=O)c3cncs3)n2)c(C)c1 [Compound 75] | 4340 nM | 2930 nM | 2370 nM | 3700 nM
18 | COc1ccc(-c2csc(NC(=O)c3ccncc3)n2)cc1 [Compound 12] | 2880 nM | > 10000 nM | 1410 nM | 3910 nM
19 | Cc1ccc(-c2nc(NC(=O)c3ccccn3)sc2C)cc1 [Compound 32] | > 10000 nM | > 10000 nM | > 10000 nM | > 10000 nM
20 | O=C(Nc1nc(-c2ccc(O)cc2)cs1)c1cccnc1 [Compound 60] | > 10000 nM | > 10000 nM | > 10000 nM | > 10000 nM
21 | Cc1cc(C)c(-c2csc(NC(=O)c3ccc4cn[nH]c4c3)n2)c(C)c1 [Compound 104] | 7640 nM | > 10000 nM | 1100 nM | 2440 nM
22 | COc1cc(C(=O)Nc2nc(-c3c(C)cc(C)cc3C)cs2)ccn1 [Compound 86] | 2510 nM | 1720 nM | 770 nM | 690 nM
23 | Cc1cc(C)c(-c2csc(NC(=O)c3ccnc(N4CCOCC4)c3)n2)c(C)c1 [Compound 83] | 4170 nM | 2370 nM | 3510 nM | 2230 nM
24 | COc1ccc(-c2csc(NC(=O)Cc3ccccc3OC)n2)c(OC)c1 [Compound 40] | > 10000 nM | > 10000 nM | > 10000 nM | > 10000 nM
25 | Cc1sc(NC(=O)c2ccccn2)nc1-c1ccccc1 [Compound 19] | 6850 nM | > 10000 nM | 6750 nM | > 10000 nM
26 | COc1cc(-c2csc(NC(=O)c3ccncn3)n2)ccc1O [Compound 48] | > 10000 nM | > 10000 nM | > 10000 nM | > 10000 nM
27 | Cc1cc(C)c(-c2csc(NC(=O)c3cccnc3)n2)c(C)n1 [Compound 46] | 7190 nM | > 10000 nM | 7410 nM | > 10000 nM

The next molecules have a lower IC50 [1] than those just listed; values first:

Row | IC50 [1] | IC50 [2] | IC50 [3] | IC50 [4] | Compound
28 | 790 nM | > 10000 nM | > 10000 nM | > 10000 nM | Cc1cc(C)c(-c2csc(NC(=O)c3ccsc3)n2)c(C)c1 [Compound 33]
29 | 460 nM | 840 nM | 450 nM | 530 nM | Cc1cc(S(C)(=O)=O)cc(C)c1-c1csc(NC(=O)c2ccncc2)n1 [Compound 127]
30 | 890 nM | 730 nM | 590 nM | 760 nM | Cc1cc(Cl)cc(C)c1-c1csc(NC(=O)c2ccncc2)n1 [Compound 55]
31 | 810 nM | 900 nM | 440 nM | 320 nM | COc1ccc(Oc2cc(C)c(-c3csc(NC(=O)c4ccncc4C)n3)c(C)c2)cc1 [Compound 121]
32 | 130 nM | 110 nM | 70 nM | 50 nM | Cc1cc(Oc2ccc3c(c2)OCO3)cc(C)c1-c1csc(NC(=O)c2ccncc2)n1 [Compound 101]
33 | 130 nM | 150 nM | 120 nM | 110 nM | Cc1ccc(Sc2cc(C)c(-c3csc(NC(=O)c4ccncc4)n3)c(C)c2)cc1 [Compound 116]
34 | 50 nM | 40 nM | 30 nM | 20 nM | COc1ccc(Sc2cc(C)c(-c3csc(NC(=O)c4ccnc(F)c4)n3)c(C)c2)cc1 [Compound 126]
35 | 330 nM | 330 nM | 250 nM | 180 nM | COc1ccccc1Oc1cc(C)c(-c2csc(NC(=O)c3ccncc3)n2)c(C)c1 [Compound 111]
36 | 1010 nM | > 10000 nM | 1240 nM | 1960 nM | Cc1cc(C)c(-c2csc(NC(=O)c3ccncc3)n2)c(C)n1 [Compound 44]
37 | 250 nM | 270 nM | 160 nM | 180 nM | CSc1cc(C)c(-c2csc(NC(=O)c3ccncc3)n2)c(C)c1 [Compound 125]
38 | 280 nM | 310 nM | 260 nM | 240 nM | COCCOc1cc(C)c(-c2csc(NC(=O)c3ccncc3)n2)c(C)c1 [Compound 109]
39 | 250 nM | 160 nM | 220 nM | 180 nM | COc1ccc(Oc2cc(C)c(-c3csc(NC(=O)c4cc[n+]([O-])cc4)n3)c(C)c2)cc1 [Compound 120]
40 | 40 nM | 40 nM | 20 nM | 20 nM | COc1ccc(Oc2cc(C)c(-c3csc(NC(=O)c4ccnc(F)c4)n3)c(C)c2)cc1 [Compound 98]

Source: patent US8946268B2, “Modulators of HEC1 activity and methods therefor” (Taivex Therapeutics, Inc., priority 2010, dated 2015)
